Key:
Format in all cases: in vivo
[1] = system: eggs, larvae and pupae of the whitefly (Bemisia tabaci); test: Bemisia tabaci test, normally sensitive strains (BEMITA); details: Example E; 0.8 ppm active compound; sprayed cotton plants
Protocol: Bemisia tabaci Test, Normally Sensitive Strains, (BEMITA)
• Solvent: 7 parts by weight of dimethylformamide • Emulsifier: 10 parts by weight of alkylaryl polyglycol ether
(§1) To produce a suitable preparation of active compound, 1 part by weight of active compound is mixed with the stated amounts of solvents and emulsifier, and the concentrate is diluted with emulsifier-containing water to the desired concentration.
Cotton plants (Gossypium hirsutum) infected by eggs, larvae and pupae of the whitefly (Bemisia tabaci) are treated by being sprayed with the preparation of active compound at the desired concentration.
After the desired period of time, the kill in % is determined 100% means that all animals have been killed; 0% means that none of the animals have been killed.
(§2) In this test, for example, the following compounds of the preparation examples show good activity: see table

adult Musca domestica = test: Musca domestica test (MUSCDO); details: Example C, treated sponge
Protocol: Musca domestica Test (MUSCDO)
(§3) • Solvent: Dimethyl sulphoxide
To produce a suitable preparation of active compound, 1 part by weight of active compound is mixed with the stated amount of water, and the concentrate is diluted with water to the desired concentration.
Containers containing a sponge treated with the preparation of active compound of the desired concentration are populated with adult Musca domestica.
After the desired period of time, the kill in % is determined. 100% means that all flies have been killed; 0% means that none of the flies have been killed.
as §2

[2] = system: larvae of the mustard beetle (Phaedon cochleariae); test: Phaedon test (PHAECO spray treatment); details: Example D; 4 ppm active compound; sprayed Chinese cabbage discs
Protocol: Phaedon Test (PHAECO Spray Treatment)
• Solvents: 78 parts by weight of acetone • 1.5 parts by weight of dimethylformamide • Emulsifier: 0.5 part by weight of alkylaryl polyglyycol ether
After the desired period of time, the effect in % is determined. 100% means that all beetle larvae have been killed; 0% means that none of the beetle larvae have been killed.

Lucilia cuprina larvae = test: Lucilia cuprina test (LUCICU); details: treated horsemeat
Protocol: Lucilia cuprina Test (LUCICU)
Description for Examples A and B
as §3
To produce a suitable preparation of active compound, 1 part by weight of active compound is mixed with the stated amount of water and the concentrate is diluted with water to the desired concentration.
Containers containing horsemeat treated with the active compound preparation of the desired concentration are populated with Lucilia cuprina larvae.
After the desired period of time, the kill in % is determined. 100% means that all larvae have been killed; 0% means that none of the larvae have been killed.
as §2

[3] = system: greenhouse red spider mite (Tetranychus urticae); test: Tetranychus test, OP-resistant (TETRUR spray treatment); details: Example F; 0.00128 ppm active compound; sprayed bean leaf discs
Protocol: Tetranychus Test, OP-resistant (TETRUR Spray Treatment)
• Solvents: 78 parts by weight of acetone • 1.5 parts by weight of dimethylformamide • Emulsifier: 0.5 part by weight of alkylaryl polyglycol ether
as §1
Discs of bean leaves (Phaseolus vulgaris) heavily infested by all stages of the greenhouse red spider mite (Tetranychus urticae) are sprayed with a preparation of active compound of the desired concentration.
After the desired period of time, the effect in % is determined 100% means that all spider mites have been killed; 0% means that none of the spider mites have been killed.
as §2

[4] = Example A, 0.8 ppm active compound

Molecule | Kill rate in % after 7 days [1] [%] | Kill rate in % after 2 days (adult Musca domestica; 0.8 ppm active compound) [%] | Kill rate in % after 2 days (adult Musca domestica; 100 ppm active compound) [%] | Kill rate in % after 7 days [2] [%] | Kill rate in % after 2 days (Lucilia cuprina larvae; [4]) [%] | Kill rate in % after 2 days (Lucilia cuprina larvae; Example B, 0.16 ppm active compound) [%] | Kill rate in % after 5 days [3] [%]
4′-O-acetyl-4′-O-de(2,6-dideoxy-3-O-methyl-α-L-arabino-hexopyrano-syl)-5-O-demethyl-avermectin A1a [reference compound] | 0 | 0 | 60 | 0 | 30 | 0 | 0
CC[C@H](C)[C@H]1OC2(C=C[C@@H]1C)C[C@@H]1C[C@@H](C/C=C(\C)[C@@H](OC3CC(OC)C(OC(=O)C4(C)COCOC4)C(C)O3)[C@@H](C)/C=C/C=C3\CO[C@@H]4[C@H](O)C(C)=CC(C(=O)O1)[C@]34O)O2 (stereo partly drawn) [Example 14] | 80 | – | – | – | 100 | – | –
